Measured values published in patent US12377112B2, “Methods of treating neurocognitive disorders, chronic pain and reducing inflammation” (priority 2019, dated 2025).

System: mice
Assay: Haloperidol-induced catalepsy model
Assay type: in vivo, mouse
Conditions: for Haloperidol-induced catalepsy (significantly reduced): FIG. 17 (24 hours after administration)
Description: The potential anti-akinetic effect of psilocybin in mice was investigated. Psilocybin (1 mg/kg, 3 mg/kg, or 10 mg/kg), chlorstyril caffeine (CSC), or vehicle was administered one hour, 24 hours, or one week prior to administration of haloperidol.
After administration of haloperidol, a catalepsy test was administered to each mouse. During the test, the forelimbs of the mice were placed on a catalepsy apparatus. The latency time was defined as the time necessary for the mouse to put the forelimbs on the table. The cut off time was set as 3 minutes. Catalepsy was evaluated every 45 minutes for 270 minutes after the Haloperidol injection.

CN(C)CCc1c[nH]c2cccc(OP(=O)(O)O)c12 [Psilocybin, psilocybin]
Haloperidol-induced catalepsy (significantly reduced) (1 mg/kg): 90 s
Start of positive effect on catalepsy after haloperidol (1 mg/kg, FIG. 18 (24 hours after administration)): 135 min
Time after haloperidol injection of decrease in descent latency (1 mg/kg, one hour prior to the test): 270 min
Time after haloperidol from which descent latency is significantly decreased (3 mg/kg, 1 week prior to the test): ≥ 224 min
Haloperidol-induced catalepsy (significantly reduced) (3 mg/kg): 60 s
Start of reduction in descent latency after haloperidol, lasting to 270 minutes (3 mg/kg, FIG. 18 (24 hours after administration)): 45 min
Time after haloperidol injection from which descent latency is significantly decreased (3 mg/kg, one hour prior to the test): ≥ 225 min
Haloperidol-induced catalepsy (significantly reduced) (10 mg/kg): 75 s
Start of positive effect on catalepsy after haloperidol (10 mg/kg, FIG. 18 (24 hours after administration)): 90 min
Time after haloperidol injection from which descent latency is significantly decreased (10 mg/kg, one hour prior to the test): ≥ 180 min
